From patent publication US20260174780A1, “BISMUTH-THIOL COMPOSITIONS AND METHODS FOR TREATING INFLAMMATORY DISEASES” (Microbion Corporation, priority 2022, published 2026)

Assays:
[1] = test system: FITC-induced contact hypersensitivity; test: FITC-induced contact hypersensitivity in mice (ear swelling, histopathology, ear cytokines); format: in vivo, BALB/c mice
Method: Protocol: Male BALB/c mice at 8 weeks old are used in the study.
All animals, except those in Group 1 (Sham), were sensitized topically (TOP) on the shaved abdominal skin with 200 μL of 0.5% Fluorescein Isothiocyanate (FITC) dissolved in 20% tributyrin in acetone on Days 1 and 2. On Day 7, animals were challenged by applying 20 μL of 0.5% FITC solution onto both sides of the right ear. Animals in Group 1 received nothing.
Vehicle, BisEDT test articles and reference compound (tacrolimus) were administered topically (TOP) once daily (QD) from Day 6 to Day 9 for 4 consecutive days (1 hour before FITC challenge on Day 7). The vehicle for BisEDT was phosphate-buffered saline (PBS).
• 2.5 mg/mL BisEDT topical suspension • 1.25 mg/mL BisEDT topical suspension—prepared as a 1:1 dilution of 2.5 mg/mL BisEDT topical suspension in sterile water and vortexed to ensure homogeneity
Analysis: Ear swelling was measured by an experimenter blinded to treatment group, with a dial thickness micrometer gauge as an index of inflammation 30 min before dosing on Days 7, 8, 9 and 10. On Day 10, ear swelling was measured at 24 hours after the last dosing. Ear edema was calculated by subtracting the thickness of Day 7 (normal control) from Day n (treated ear). Percentage inhibition was calculated according to the formula: (Ic−It)/Ic×100, where Ic and It refer to the increase of ear thickness (mm) both in the control and treated animals. Body weight was recorded daily during the study period.
The animals were sacrificed on Day 10 and the ears were then harvested and weighed. Half of the right ear was fixed in 10% formalin for histopathology, and the other half was processed for cytokine measurement (IL-18, IL-6, and IL-10) using ThermoFisher Mouse ProcartaPlex Kit by Luminex.

[2] = test system: M. abscessus strain 19977; test: Chronic M. abscessus lung infection in SCID mice, inhaled treatment, lung CFU; format: in vivo, SCID/Beige mice
Method: In vivo studies were conducted in mice to separately model chronic M. abscessus infection. The animals were treated for 28 days and grouped according to dosage: vehicle, low dose BisEDT, high dose BisEDT, and amikacin. At the end of treatment, blood, lungs were collected for analysis. […] Histopathology was conducted on lung samples from the in vivo studies.
A total of sixty female SCID/Beige mice between 6-8 weeks of age were used. Mice were placed up to 4 animals per cage and allowed 1 week of acclimation prior to infection.
Inoculums of M. abscessus strain 19977 (MAB) used in this study were made from highly virulent frozen stocks with low passage numbers. Bacteria were allowed to grow to log phase after 4 days on 7H10 media agar plates at 37° C. Once confluent, inoculums were made by suspending bacteria at 10^9 in Hank's balanced salt solution (HBSS) as determined by optical density (O.D.) and further quantified by serial dilution to determine the CFU/mL of suspension. At this higher concentration of bacteria, only 20 μL of inoculum was necessary to deposit […] bacteria per mouse.
On the day of infection mice were anesthetized with isoflurane by the drop jar method. Mice were scruffed in a standard one-handed grip and the nose of the mouse is held of a tube containing gauze containing a small amount of isoflurane. Mice were monitored for breathing and once rapid breaths have slowed down initially the mouse is removed from direct anesthesia and 20 μL of bacterial suspension was deposited on the left nostril. The mice then slowly breath in the droplet. Each mouse was then held in hand until complete consciousness was obtained and then the mouse was replaced into its home cage. After infection was initiated, 3 weeks were allowed to pass in order to allow the bacteria to establish a chronic lung pathology for eventual treatment.
After establishing each infection, 12 mice were euthanized the day before treatment began to determine the baseline bacterial load. Mice were euthanized using CO2 in accordance with the recommendations of the Guide for the Care and Use of Laboratory Animals (NRC 2011). Lungs were collected and homogenized then serial diluted for CFU enumeration.
A nose-only inhalation exposure chamber from CH technologies was used for this experiment. Mice were split into four treatment groups, Vehicle (buffer containing no BisEDT), amikacin (100 μg/kg/day), BisEDT “low” (200 μg/kg/day), and BisEDT “high” (1000 μg/kg/day). Each treatment group consisted of 12 mice. […]
After 28 days of treatment with BisEDT, animals were euthanized by CO2 and secondary cardiac puncture to collect whole blood for quantitation of BisEDT concentration. […] CFUs were determined after serial dilution. […]

NLRP3 = test: qPCR of NLRP3 in A549 cells; format: cell-based, human; conditions: 0.5-4 μg/mL, 24 hours, compared to untreated cells
Method: Protocol: A549 cells were grown in tissue culture flasks and a 24-well plate was seeded with 2×10^5 cells/well and incubated at 37° C. and 5% CO2 for 48 hours. Select wells were treated with either 4 μg/mL, 2 μg/mL, 1 μg/mL, or 0.5 μg/mL BisEDT or left untreated as a control and incubated at 37° C. and 5% CO2 for 24 hours. Cell culture supernatant was collected from each well and stored at −20° C. until further analysis. Cells were collected for RNA isolation using Qiagen RNeasy kit using manufacturer's instructions. Briefly, genomic DNA was degraded with DNase (Roche) and samples were incubated at 37° C. for 1 hour followed by 3 μL DNase inactivation reagent (Invitrogen) incubated at 37° C. for 2 minutes. Samples were centrifuged at maximum speed for 5 minutes to remove the inactivation reagent. RNA concentration and quality was evaluated using a Nanodrop. RNA samples were utilized to generate cDNA using cDNA synthesis kit (Bio-Rad). qPCR for NLRP3 and actin (housekeeping gene) was conducted using SYBR green kit (Bio-Rad) along with standard.

[3] = Tolerability of inhaled BisEDT in the M. abscessus mouse study; format: in vivo, SCID/Beige mice; conditions: inhaled 200 and 1000 μg/kg/day, 28 days
Method: A nose-only inhalation exposure chamber from CH technologies was used for this experiment. Mice were split into four treatment groups, Vehicle (buffer containing no BisEDT), amikacin (100 μg/kg/day), BisEDT “low” (200 μg/kg/day), and BisEDT “high” (1000 μg/kg/day). Each treatment group consisted of 12 mice. Ten of these mice were used for CFU determination and two mice are used for histology/pathology/lung pharmacokinetics. Treatment was conducted 6 days a week over the course of 28 days total. To create the correct level of deposited dose of each drug tested, 10 mL of test article were made. Amikacin in HBSS at 20 mg/mL was made and stored at 4° C. until needed. BisEDT “high” at a concentration of 8 mg/mL was made once a week and stored at room temperature. BisEDT “low” was diluted from the 8 mg/mL to 1.6 mg/mL the day of treatment. Each treatment used an LC star reusable nebulizer from Pari. Animals were restrained and placed on the inhalation apparatus. The respiratory hose was connected to the inhalation apparatus and a compressor was connected to the nebulizer. The rate of air flow from the compressor to the nebulizer remained at 8.5 L/minute, which generated a nebulized fog that each mouse breathed in over 45 min.

[4] = topical, compared to vehicle control

With `C1C[S][Bi]([S]CC[S][Bi]2[S]CC[S]2)[S]1` [BisEDT, 1,2-(Bis(1,3-dithia-2-bismolane)thio)ethane] as the compound, how does the “overall effect in the FITC-induced contact hypersensitivity model” value ([1]; mouse, in vivo) read?
The value was “overall anti-inflammatory effect”.

What about the ear swelling ([1]; topical QD x 4, 2.5 and 1.25 mg/mL, compared to vehicle control) of the same compound?
Its ear swelling is “statistically significant and dose-dependent reduction”.

What about the epidermal thickness [1, 4] of the same compound?
Its epidermal thickness is “significant reduction”.

What about the histopathological score [1, 4] of the same compound?
Its histopathological score is “significant reduction”.

What about the “CFU count in lung homogenates” value ([2]; 200 μg/kg (low)) of the same compound?
Its value is “bacteriostatic effect”.

And the “CFU count in lung homogenates” value ([2]; 1000 μg/kg (high) delivered to the lungs)?
The value was “bactericidal”.

What about the “lung CFU, high-dose group vs vehicle control” value ([2]; 1000 μg/kg/day, p-value=0.0163) of the same compound?
Its value is “statistically significant difference”.

What about the “lung CFU” value ([2]; inhaled 200 and 1000 μg/kg/day, 28 days, Kruskal-Wallis test) of the same compound?
The value was “dose-dependent response”.

And the “NLRP3 expression (NLRP3/Actin copy number)” value (NLRP3)?
Its value is “inhibits NLRP3 expression”.

What about the “body weight at the end of treatment” value [3] of the same compound?
The value was “within the normal weight range”.

And the tolerability [3]?
The tolerability was “well tolerated”.
